Measured values reported in patent US20150225794A1, “METHOD OF PREDICTING A PREDISPOSITION TO QT PROLONGATION” (Vanda Pharmaceuticals, Inc., priority 2009, published 2015).

Legend:
QT interval [1] = assay: ABCC2 SNP genotypes and QT prolongation following administration of iloperidone; type: in vivo, human; conditions: QTcF
Method: (§1) Since the QT interval changes with changes in heart rate, the QT interval is often measured as a corrected QT (QTc) interval. Any number of formulas may be employed to calculate the QTc, including, for example, the Fridericia formula (QTcF), the Bazett formula (QTcB), and the Rautaharju formula (QTp), among others. In the studies described herein, QT was calculated using the Fridericia formula. However, the present invention includes the use of any such formula or method for calculating a QTc or an uncorrected QT.

QT interval [2] = assay: QT prolongation and rs7067971 genotype in individuals given oral iloperidone for two weeks; type: in vivo, human; conditions: for High QT, + test (number of individuals) / Low QT, + test (number of individuals): rs7067971 GG; for High QT, + test (number of individuals) / Low QT, + test (number of individuals) / High QT, − test (number of individuals) / Low QT, − test (number of individuals): 24 mg/day B.I.D. oral, two weeks; for High QT, − test (number of individuals) / Low QT, − test (number of individuals): rs7067971 non-GG; for Odds Ratio: rs7067971 GG test
Method: as §1, with “QT. Using the genotypes at the SNP loci above, it is possible, with a high degree of certainty, to predict an individual's predisposition to QT prolongation.” for “QT.”

COc1cc(C(C)=O)ccc1OCCCN1CCC(c2noc3cc(F)ccc23)CC1 [iloperidone]
Lowest QTc change (genotype) (QT interval [1]; SNP_A-2004488, rs2256678, allele A C, allele B T): non-BB
Lowest QTc change (genotype) (QT interval [1]; SNP_A-2068049, rs7067971, allele A A, allele B G): non-BB
Lowest QTc change (genotype) (QT interval [1]; SNP_A-2253129, rs4919395, allele A C, allele B T): non-BB
Lowest QTc change (genotype) (QT interval [1]; SNP_A-2262953, rs2804398, allele A A, allele B T): non-BB
Lowest QTc change (genotype) (QT interval [1]; SNP_A-4268713, rs2256700, allele A A, allele B G): non-BB
High QT, + test (number of individuals) (QT interval [2]; change threshold QT > 5 msec): 13
Low QT, + test (number of individuals) (QT interval [2]; change threshold QT > 5 msec): 0
High QT, − test (number of individuals) (QT interval [2]; change threshold QT > 5 msec): 101
Low QT, − test (number of individuals) (QT interval [2]; change threshold QT > 5 msec): 64
Odds Ratio (QT interval [2]; change threshold QT > 15 msec): 9.38
High QT, + test (number of individuals) (QT interval [2]; change threshold QT > 15 msec): 11
Low QT, + test (number of individuals) (QT interval [2]; change threshold QT > 15 msec): 2
High QT, − test (number of individuals) (QT interval [2]; change threshold QT > 15 msec): 61
Low QT, − test (number of individuals) (QT interval [2]; change threshold QT > 15 msec): 104
Odds Ratio (QT interval [2]; change threshold QT > 30 msec): 5.88
High QT, + test (number of individuals) (QT interval [2]; change threshold QT > 30 msec): 6
Low QT, + test (number of individuals) (QT interval [2]; change threshold QT > 30 msec): 7
High QT, − test (number of individuals) (QT interval [2]; change threshold QT > 30 msec): 21
Low QT, − test (number of individuals) (QT interval [2]; change threshold QT > 30 msec): 144
